Experimental data as given in US9586914B2, “Modulators of C3a receptors” (THE UNIVERSITY OF QUEENSLAND, priority 2011, dated 2017).
“Also recorded” adds a separate entry of the source. Where two headings read alike, the source gives them in different places.

What was measured:
C3a receptor (C3aR) = target: T1, C3a receptor (C3aR) (Homo sapiens, UniProt Q16581); test: Competitive binding with [^125I]-C3a in HMDM; settings: for IC50 / pIC50 ± SEM / Receptor Binding Affinity pIC50 ± SE: HMDM
T1 construct: peripheral blood mononuclear cells were isolated from buffy coat (obtained from Australian Red Cross Blood Service, Kelvin Grove); endogenous in cells; host or cells: primary human monocyte-derived macrophages (HMDM) differentiated from CD14+ monocytes of donor buffy coat
T1 sequence (Q16581 1-482): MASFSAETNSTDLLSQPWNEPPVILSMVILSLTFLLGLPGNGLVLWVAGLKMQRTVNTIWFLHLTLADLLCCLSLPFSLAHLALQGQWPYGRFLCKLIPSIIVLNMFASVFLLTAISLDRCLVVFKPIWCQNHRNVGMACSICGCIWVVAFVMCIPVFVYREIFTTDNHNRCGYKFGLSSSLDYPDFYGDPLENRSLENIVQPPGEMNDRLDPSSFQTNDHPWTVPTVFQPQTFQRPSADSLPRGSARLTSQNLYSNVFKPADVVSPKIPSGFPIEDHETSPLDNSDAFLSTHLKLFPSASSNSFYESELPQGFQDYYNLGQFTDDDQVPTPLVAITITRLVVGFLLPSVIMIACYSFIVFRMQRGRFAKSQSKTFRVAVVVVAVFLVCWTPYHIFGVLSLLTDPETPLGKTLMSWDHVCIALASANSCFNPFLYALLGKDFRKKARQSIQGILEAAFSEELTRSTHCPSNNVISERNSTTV
In short: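 IC50 values are geometric means, with −log IC50 computed per experiment and given as arithmetic mean ± SE. Cells were CD14+ monocytes from buffy-coat PBMC, differentiated to macrophages and used on day 7. Unbound label was removed by GF/B filtration with 3 cold washes in 50 mM Tris-HCl pH 7.4.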

C3aR = target: T2, C3aR (Homo sapiens, UniProt Q16581); test: Calcium mobilization assay in HMDM (agonist/antagonist activity); format: cell-based
T2 construct: peripheral blood mononuclear cells were isolated from buffy coat (obtained from Australian Red Cross Blood Service, Kelvin Grove); endogenous in cells; host or cells: primary human monocyte-derived macrophages (HMDM) differentiated from CD14+ monocytes of donor buffy coat
T2 sequence (Q16581 1-482): T1 sequence (Q16581 1-482)
In short: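 Human monocyte-derived macrophages, 5×10^4 cells/well, loaded 1 h at 37 °C with 4 μM Fluo-3 in HBSS/HEPES/probenecid buffer, pH 7.4. Agonist mode: calcium release read 300 s; antagonist mode: 900 s compound preincubation then agonist, read 300 s (ex 485/em 520 nm); compared with hC3a.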

[1] = system: IL1B, IL8, CCL3, EGR1, FOSB and TNF gene expression in HMDMs; test: Regulation of inflammatory genes in HMDM (qRT-PCR); format: cell-based, human; settings: for Induction of gene expression of IL1B, IL8, CCL3, EGR1, FOSB and TNF: HMDMs, 300 nM, 30 minutes, qRT-PCR, fold change from control
Source text: Human monocyte-derived macrophages (HMDMS) were isolated from buffy coat of anonymous donors provided by the Australian Red Cross Blood Service at Kelvin Grove, Queensland, Australia. White blood cells were separated from other blood components into different layers using Ficoll-Paque Plus Density Centrifugation (GE Healthcare Bio-Science, Uppsala, Sweden) according to manufacturer's instruction. The isolated white blood cells were repeatedly washed with ice-cold water to remove contaminating erythrocytes. CD14^+ monocytes were positively selected from white blood cells using CD14^+ Macs Magnetic Beads (Miltenyi biotech, Auburn, Calif., USA) after successive magnetic sorting and washings. CD14^+ monocytes (1.5×10^6 cells/mL) were seeded in 10 mL of IMDM supplemented with 10% fetal calf serum (FBS), 10 U/mL streptomycin, 10 U/mL penicillin and 2 mmol L-glutamine (Invitrogen). To generate HMDMS, […] of recombinant human macrophage colony stimulating factor (M-CSF) (Peprotech Inc., rocky Hill, N.J., USA) was added for differentiation. HMDMS were maintained at 37° C. in a humidified incubator with 5% CO2 for a week to fully differentiate. At day 7, the adhered HMDMS were harvested by gentle scraping in saline solution.
HMDMs (2×10^6) in 2 mL of IMDM medium were transferred into each well on a 6-well plate. The cells were left to incubate for 6 h to allow adhesion before being serum starved in serum free IMDM to reduce background noise of the C3a treatment. In the time response experiment, cells were treated with 10 nM of C3a or agonist (compound 8 or 64) for 0.5, 1, 2 or 6 h. In concentration response experiments, cells were treated with 1, 10, 100 or 300 nM for 1 h. To prepare the samples for the microarray experiments, cells were treated with agonist at 100-300 nM for 30 min or 1 h in the absence or presence of the antagonist (e.g. SB-290157 or antagonists). […] Cells were washed with saline solution at the end of each treatment before the RNA extraction step.
Total RNA was extracted from cells using RNeasy Mini Plus kit (Qiagen, USA) according to the manufacturer's instructions. The concentration of the RNA was determined by measuring absorbance at λ=260/280 […] on a nanodrop spectrophotometer (Thermo Scientific), according to the manufacturer's instructions.
Total RNA (2-5 μg) was reverse transcribed with Superscript III (Invitrogen, USA) using random oligo dT primer. Reagents were incubated (50 min, 50° C.; then 10 min, 70° C.) in thermal cyclers (Bio-Rad) to complete the reaction, cDNA samples were stored at −20° C. until further use. All RNA work was performed on ice (4° C.) to prevent degradation of the RNA samples.
cDNA (0.5 μg) samples were prepared with 5 μL SYBR® Green PCR master mix (Applied Biosystems™, CA, USA), 2 μL relevant primers (2 μM) and 1 μL dH2O before being analysed using an ABI 7900HT Fast Real-Time PCR System (Applied Biosystems™, CA, USA) according to the manufacturer's specifications. Fluorescence data was collected during the extension phase (60° C.). The concentration response data for each sample was then normalised against the same data for control housekeeping gene, (18S) to quantify and generate gene expression data. All samples were done in at least duplicate. Primers were designed using the Primer-BLAST software (National Center for Biotechnology Information, USA). Primers contained, amplicons that cross exon-exon boundaries to prevent amplification of genomic DNA. […]

[2] = Table 8, read-out: Receptor Binding Affinity ^125I IC50
[3] = Table 10, HMDM, read-out: Agonist Activity EC50
[4] = Table 6, competitive binding with [^125I]-C3a
[5] = Table 6, competitive binding with [^125I]-C3a, read-out: IC50 (converted)
[6] = Table 11, [^125I]-C3a, read-out: Receptor Binding Affinity IC50
[7] = Table 9, Ca^2+ mobilization, HMDM
[8] = Table 11, Ca^2+ mobilisation, HMDM

IC50 (C3a receptor (C3aR); [2]) [nM] | -Log IC50 (C3a receptor (C3aR); Table 14, binding affinity for C3aR on HMDM) | EC50 (C3aR; [3]) [nM] | Function at C3aR (agonist / antagonist) (C3aR; text of Example 100) | pIC50 ± SEM (C3a receptor (C3aR); [4]) | IC50 (C3a receptor (C3aR); [5]) [nM] | Receptor Binding Affinity pIC50 ± SE (C3a receptor (C3aR); Table 11, [^125I]-C3a) | IC50 (C3a receptor (C3aR); [6]) [nM] | pEC50 ± SEM (C3aR; [7]) | IC50 (C3aR; Table 9, antagonist SB290157, Ca^2+ mobilization, HMDM, read-out: IC50 (printed in the EC50 (nM) column)) [nM] | IC50 (C3aR; Table 10, HMDM, read-out: Antagonist Activity Ca^2+ IC50) [nM] | Apparent Antagonist Activity pIC50 ± SE (C3aR; [8]) | IC50 (C3aR; Table 11, Ca^2+ mobilisation, HMDM, read-out: Apparent Antagonist Activity IC50) [nM] | EC50 (C3aR; Table 9, Ca^2+ mobilization, HMDM, read-out: EC50) [nM] | Apparent Antagonist Activity pEC50 ± SE (C3aR; [8]) | EC50 (C3aR; Table 11, Ca^2+ mobilisation, HMDM, read-out: Apparent Antagonist Activity EC50) [nM] | Compound | Induction of gene expression of IL1B, IL8, CCL3, EGR1, FOSB and TNF [1] | Apparent Antagonist Activity pEC50 ± SE (symbol) (C3aR; Table 11) | Effect of antagonist on gene induction by C3a or compounds 8 or 64 ([1]; SB290157 5 μM, 30 mins preincubation) | Effect of pertussis toxin pre-treatment on gene induction by C3a or compounds 8 or 64 ([1]; 200 ng/mL pertussis toxin overnight, then 300 nM agonist for 30 minutes (not shown))
7.6 | 8.0 | 24 | potent full agonist | – | – | – | – | – | – | – | – | – | – | – | – | Cc1nc(C(c2ccccc2)c2ccccc2)[nH]c1C(=O)N[C@@H](CCCNC(=N)N)C(=O)O [Compound 64, 2-Diphenylmethyl-4-methyl imidazole-5-carboxyl-Arg-OH] | significantly induce gene expression; also recorded: induced expression of inflammatory genes | – | – | –
11 | – | – | – | 7.42 ± 0.06 | 38 | 7.42 ± 0.06 | 38 | 5.52 ± 0.08 | 3050 | 1300 | 5.6 ± 0.09 | 2700 | – | – | – | NC(N)=NCCC[C@H](NC(=O)COCC(c1ccccc1)c1ccccc1)C(=O)O [SB290157, reference compound] | – | * (The compounds show no agonist activity in calcium mobilisation assays up to 100 μM.) | prevented | –
0.07 | – | 45000 | – | 9.64 ± 0.04 | 0.23 | 9.64 ± 0.04 | 0.23 | 7.19 ± 0.06 | – | – | – | – | 65 | 7.2 ± 0.06 | 65 | hC3a: human complement protein C3a, natural ligand of the C3a receptor; unlabelled competitor and reference agonist | significantly induce gene expression | – | – | –
– | – | – | – | – | – | – | – | – | – | – | – | – | – | – | – | pertussis toxin [reference compound] | – | – | – | ablated
